Species: Rattus norvegicus
Experiment: DrugMatrix - Regimen: Daily Repeat
Assay type: toxicity, organism-based, Sprague-Dawley
Design: regimen Daily Repeat, gender Male, age 6-8 weeks
Conditions: in vivo, sc, route subcutaneous, […]; for ABSOLUTE BASOPHIL / ABSOLUTE EOSINOPHIL / ABSOLUTE LYMPHOCYTE / ABSOLUTE MONOCYTE / ABSOLUTE SEGMENTED NEUTROPHIL / BASOPHIL / EOSINOPHIL / ERYTHROCYTE COUNT / HEMATOCRIT / HEMOGLOBIN / LEUKOCYTE COUNT / LYMPHOCYTE / MEAN CORPUSCULAR HEMOGLOBIN / MEAN CORPUSCULAR VOLUME / MONOCYTE / NEUTROPHIL / NUCLEATED RED BLOOD CELLS / PLATELET COUNT: tissue Blood; for ALANINE AMINOTRANSFERASE / ALBUMIN / ALKALINE PHOSPHATASE / ASPARTATE AMINOTRANSFERASE / BLOOD UREA NITROGEN / CARBON DIOXIDE / CHLORIDE / CHOLESTEROL / CREATINE PHOSPHOKINASE / CREATININE / GLUCOSE / LACTATE DEHYDROGENASE / LIPASE / PHOSPHORUS / POTASSIUM / SODIUM / TOTAL BILIRUBIN / TOTAL PROTEIN / URIC ACID: tissue Plasma
[1] = 0 mg/kg, 72 h, dose level Control, time 3 day
[2] = 0 mg/kg, 120 h, dose level Control, time 5 day
[3] = 50 mg/kg, 72 h, dose level Low, time 3 day

For `CCCCCCCCc1ccc(O)cc1` [4-OCTYLPHENOL], the “ABSOLUTE BASOPHIL” value [1] was 0 CELLS/uL, the “ABSOLUTE EOSINOPHIL” value [1] was 0 CELLS/uL and the “ABSOLUTE LYMPHOCYTE” value [1] was 9782.33 CELLS/uL. For the same compound, the “ABSOLUTE MONOCYTE” value [1] was 114.67 CELLS/uL, the “ABSOLUTE SEGMENTED NEUTROPHIL” value [1] was 753 CELLS/uL and the BASOPHIL [1] was 0%. The EOSINOPHIL [1] was 0%, the “ERYTHROCYTE COUNT” value [1] was 5.14 x10E6/uL and the HEMATOCRIT [1] was 32.12%. The HEMOGLOBIN [1] was 13.13 G/DL, the “LEUKOCYTE COUNT” value [1] was 10.65 x10E3/uL and the LYMPHOCYTE [1] was 91.83%. For the same compound, the “MEAN CORPUSCULAR HEMOGLOBIN” value [1] was 25.83 pg, the “MEAN CORPUSCULAR VOLUME” value [1] was 62.43 fL and the MONOCYTE [1] was 1%. The NEUTROPHIL [1] was 7.17%, the “NUCLEATED RED BLOOD CELLS” value [1] was 0.17 /100WBC and the “PLATELET COUNT” value [1] was 657.83 x10E3/uL. The “ALANINE AMINOTRANSFERASE” value [1] was 60.33 u/L, the ALBUMIN [1] was 3.83 G/DL and the “ALKALINE PHOSPHATASE” value [1] was 366.33 u/L. For the same compound, the “ASPARTATE AMINOTRANSFERASE” value [1] was 104.5 u/L, the “BLOOD UREA NITROGEN” value [1] was 12.33 mg/dL and the “CARBON DIOXIDE” value [1] was 23.17 mmol/L. The CHLORIDE [1] was 96.67 MEQ/L, the CHOLESTEROL [1] was 73.17 mg/dL and the “CREATINE PHOSPHOKINASE” value [1] was 545.83 u/L. For the same compound, the CREATININE [1] was 0.26 mg/dL, the GLUCOSE [1] was 144.33 mg/dL and the “LACTATE DEHYDROGENASE” value [1] was 147.5 u/L. It also gave an LIPASE [1] of 9.33 u/L, a PHOSPHORUS [1] of 10.83 mg/dL and a POTASSIUM [1] of 5.68 MEQ/L. For the same compound, the SODIUM [1] was 138.83 MEQ/L, the “TOTAL BILIRUBIN” value [1] was 0.17 mg/dL and the “TOTAL PROTEIN” value [1] was 5.42 G/DL. The “URIC ACID” value [1] was 0.65 mg/dL, the “ABSOLUTE BASOPHIL” value [2] was 0 CELLS/uL and the “ABSOLUTE EOSINOPHIL” value [2] was 43.33 CELLS/uL. The “ABSOLUTE LYMPHOCYTE” value [2] was 12883 CELLS/uL, the “ABSOLUTE MONOCYTE” value [2] was 166.83 CELLS/uL and the “ABSOLUTE SEGMENTED NEUTROPHIL” value [2] was 1290.17 CELLS/uL. The BASOPHIL [2] was 0%, the EOSINOPHIL [2] was 0.33% and the “ERYTHROCYTE COUNT” value [2] was 5.79 x10E6/uL. For the same compound, the HEMATOCRIT [2] was 36.37%, the HEMOGLOBIN [2] was 14.17 G/DL and the “LEUKOCYTE COUNT” value [2] was 14.38 x10E3/uL. For the same compound, the LYMPHOCYTE [2] was 89.17%, the “MEAN CORPUSCULAR HEMOGLOBIN” value [2] was 24.48 pg and the “MEAN CORPUSCULAR VOLUME” value [2] was 62.83 fL. For the same compound, the MONOCYTE [2] was 1.17%, the NEUTROPHIL [2] was 9.33% and the “NUCLEATED RED BLOOD CELLS” value [2] was 0.5 /100WBC. For the same compound, the “PLATELET COUNT” value [2] was 1267.33 x10E3/uL, the “ALANINE AMINOTRANSFERASE” value [2] was 53.5 u/L and the ALBUMIN [2] was 3.82 G/DL. For the same compound, the “ALKALINE PHOSPHATASE” value [2] was 342.33 u/L, the “ASPARTATE AMINOTRANSFERASE” value [2] was 83.67 u/L and the “BLOOD UREA NITROGEN” value [2] was 13.17 mg/dL. The “CARBON DIOXIDE” value [2] was 28.17 mmol/L, the CHLORIDE [2] was 101.5 MEQ/L and the CHOLESTEROL [2] was 70.83 mg/dL. For the same compound, the “CREATINE PHOSPHOKINASE” value [2] was 656.67 u/L, the CREATININE [2] was 0.17 mg/dL and the GLUCOSE [2] was 171.33 mg/dL. The “LACTATE DEHYDROGENASE” value [2] was 169 u/L, the LIPASE [2] was 9.17 u/L and the PHOSPHORUS [2] was 12.88 mg/dL. The POTASSIUM [2] was 6.54 MEQ/L, the SODIUM [2] was 141.2 MEQ/L and the “TOTAL BILIRUBIN” value [2] was 0.18 mg/dL. For the same compound, the “TOTAL PROTEIN” value [2] was 5.68 G/DL, the “URIC ACID” value [2] was 2.02 mg/dL and the “ABSOLUTE BASOPHIL” value [3] was 0 CELLS/uL. The “ABSOLUTE EOSINOPHIL” value [3] was 58 CELLS/uL, the “ABSOLUTE LYMPHOCYTE” value [3] was 8002.33 CELLS/uL and the “ABSOLUTE MONOCYTE” value [3] was 124.67 CELLS/uL. For the same compound, the “ABSOLUTE SEGMENTED NEUTROPHIL” value [3] was 648.33 CELLS/uL, the BASOPHIL [3] was 0% and the EOSINOPHIL [3] was 0.67%. For the same compound, the “ERYTHROCYTE COUNT” value [3] was 5.33 x10E6/uL, the HEMATOCRIT [3] was 34.07% and the HEMOGLOBIN [3] was 13.23 G/DL. The “LEUKOCYTE COUNT” value [3] was 8.83 x10E3/uL, the LYMPHOCYTE [3] was 90% and the “MEAN CORPUSCULAR HEMOGLOBIN” value [3] was 24.83 pg. The “MEAN CORPUSCULAR VOLUME” value [3] was 63.87 fL, the MONOCYTE [3] was 1.67% and the NEUTROPHIL [3] was 7.67%. For the same compound, the “NUCLEATED RED BLOOD CELLS” value [3] was 0 /100WBC, the “PLATELET COUNT” value [3] was 876 x10E3/uL and the “ALANINE AMINOTRANSFERASE” value [3] was 50.33 u/L. The ALBUMIN [3] was 3.9 G/DL, the “ALKALINE PHOSPHATASE” value [3] was 340 u/L and the “ASPARTATE AMINOTRANSFERASE” value [3] was 88 u/L. For the same compound, the “BLOOD UREA NITROGEN” value [3] was 10 mg/dL, the “CARBON DIOXIDE” value [3] was 24.67 mmol/L and the CHLORIDE [3] was 94 MEQ/L. For the same compound, the CHOLESTEROL [3] was 67.33 mg/dL, the “CREATINE PHOSPHOKINASE” value [3] was 672.33 u/L and the CREATININE [3] was 0.22 mg/dL. For the same compound, the GLUCOSE [3] was 130.67 mg/dL, the “LACTATE DEHYDROGENASE” value [3] was 143.33 u/L and the LIPASE [3] was 9.67 u/L. The PHOSPHORUS [3] was 11.07 mg/dL, the POTASSIUM [3] was 6.18 MEQ/L and the SODIUM [3] was 136.97 MEQ/L. The “TOTAL BILIRUBIN” value [3] was 0.1 mg/dL, the “TOTAL PROTEIN” value [3] was 5.4 G/DL and the “URIC ACID” value [3] was 0.83 mg/dL.

— ChEMBL document CHEMBL3885881, “DrugMatrix”
